# According to US4643994A, “Novel organic trithio oxides and method for the preparation thereof” (The Research Foundation of State University of New York, priority 1984, dated 1987):
# Where two headings read alike, the source gives them in different places.
# Tests used:
# [1] = system: blood platelets (platelet rich, citrated, human blood plasma); assay: inhibition of platelet aggregation in platelet rich, citrated human blood plasma (aggregometer), agonist ADP or collagen; assay type: cell-based; conditions: for IC50: agonist ADP (10 μg), read-out: ID50 (the source's name)
# [2] = system: blood platelets (platelet rich, citrated, human blood plasma); assay: as above; assay type: cell-based; conditions: for IC50: agonist COLLAGEN (2 μg), read-out: ID50 (the source's name)
# Excerpt: (§1) Various substances are known to cause blood platelets to aggregate which in turn can result in blood clots in the blood circulatory system of living animals. Certain other compounds are known to prevent blood platelet aggregation and accordingly are known as antithrombotic agents, while other compounds prevent clotting of aggregated platelets and are called anticoagulants. Both are used in the treatment of phlebitis, stroke, coronary thrombosis, and arteriosclerosis. In a typical test to determine antithrombotic activity, the suspected antithrombotic substance is mixed with a suspension of blood platelets, incubated for a few minutes, and then the suspension is treated with a known amount of a known agonist (agents inducing aggregation). The effectiveness of the suspected antithrombotic is compared to a control which has been treated with the agonist but which has not been treated with the antithrombotic and a quantitative measure of effectiveness is determined by ascertaining the concentration of suspected antithromobotic necessary to reduce by 50% the extent of platelet aggregation compared to the control. This measurement is termed the ID50 of the antithrombotic. Typical agonists include collagen and ADP (adenosine diphosphate).
# Platelet rich, citrated, human blood plasma (250,000 platelets/μL) was prepared and divided into 0.45 ml aliquots for use in determining ID50 levels of the subject compounds. The aliquots were treated with various quantities of the compounds of the instant invention and thereafter were preincubated by maintaining in an aggregometer curvette for two (2) minutes at 37° C. with stirring (950 RPM). Control aliquots free of antithrombotic component, were maintained and subjected to each of the processing steps. Each aliquot was then treated with an agonist in this instance being an appropriate amount of ADP (10 μmole) or collagen (2 μg). Aggregation in each aliquot was monitored for a period of 3-5 minutes and percent aggregation was quantified by a dual channel aggregometer which ascertained percent aggregation by comparision against a control of light transmittance through the sample.
# [3] = system: S. Aureus bacteria; assay: antibacterial activity against S. Aureus; assay type: cell-based
# [4] = system: blood platelets; assay: antithrombotic activity in combination with other known antithrombotics
# Excerpt: as §1
molecule,measurement,setting,value
C=CCSSCCC[S+]([O-])CC=C (stereo not shown) [Aliquot 3],IC50,"[1]; Homo sapiens, Platelet",> 400 µM
same,IC50,"[2]; Homo sapiens, Platelet",> 400 µM
C=CCSS/C=C/C[S+](C)[O-] (stereo not shown) [Aliquot 4],IC50,"[1]; Homo sapiens, Platelet",> 400 µM
same,IC50,"[2]; Homo sapiens, Platelet",374 µM
"CSS/C=C/C[S+](C)[O-] (stereo not shown) [Aliquot 5, (E) 2,3,7-trithiaocta-4-ene 7-oxide]",IC50,"[1]; Homo sapiens, Platelet",> 400 µM
same,IC50,"[2]; Homo sapiens, Platelet",332 µM
"C=CCS(=O)(=O)C/C=C/SS(=O)(=O)CC=C [Aliquot 8, (E) 4,5,9-trithiadodeca-1,6,11-triene 4,4,9,9-tetraoxide]",effect on platelet aggregation,[1]; at levels of 40 μg/ml of ADP,appears to act as an agonist
C=CCS(=O)(=O)C/C=C/SS(=O)(=O)CC=C [Aliquot 8],ID50 columns: result in words,[2]; printed across the ADP (10 μg) and COLLAGEN (2 μg) columns,Causes Aggregation
C=CCSS/C=C/C[S+]([O-])CCCC(=O)OCC (stereo not shown) [Aliquot 9],IC50,"[1]; Homo sapiens, Platelet",388 µM
same,IC50,"[2]; Homo sapiens, Platelet",388 µM
C=CCS(=O)(=O)C/C=C/SSCCC [Aliquot 10],IC50,"[1]; Homo sapiens, Platelet",210 µM
C=CCS(=O)(=O)C/C=C/SSC/C=C/C [Aliquot 11],IC50,"[1]; Homo sapiens, Platelet",208 µM
C=CCS(=O)(=O)C/C=C/SSCc1ccccc1 [Aliquot 12],IC50,"[1]; Homo sapiens, Platelet",204 µM
C=CCS(=O)(=O)C/C=C/SSC/C=C\CCC [Aliquot 13],IC50,"[1]; Homo sapiens, Platelet",280 µM
C=CCS(=O)(=O)C/C=C/SSC/C=C/CCC [Aliquot 14],IC50,"[1]; Homo sapiens, Platelet",> 400 µM
"C=CC[S+]([O-])CC=CSS(=O)(=O)CC=C (stereo not shown) [Example 5, (E,Z)-4,5,9-trithiadodeca-1,6,11-triene 4,4,9-trioxide]",growth of S. Aureus bacteria,[3]; 0.25 m. molar concentration,growth of the bacteria was inhibited
same,killing of S. Aureus bacteria,[3]; 1.0 m. molar concentration,killing of the bacteria
"COc1ccc2c(c1)c(CC(=O)O)c(C)n2C(=O)c1ccc(Cl)cc1 [Indomethacin, indomethacin]",antithrombotic activity when combined with various compounds of the invention,[4],particularly enhanced antithrombotic activity
CCCCC[C@H](O)/C=C/[C@@H]1[C@H]2C/C(=C/CCCC(=O)O)O[C@H]2C[C@H]1O [prostacyclin],antithrombotic activity when combined with various compounds of the invention,[4],particularly enhanced antithrombotic activity
"(E)-4,5,9-trithiadodeca-6,11-diene 9,9 dioxide [Aliquot 10]",IC50,[1],182 µM
"(E,Z)-4,5,9-trithiadodeca-1,6,11-triene 9,9dioxide [Example 2]",IC50,[1],209 µM
same,IC50,[2],214 µM
